What was measured:
Assay in all cases: relative viability (nuclei count vs DMSO), 5 days (fraction); higher = more cells survive
TGX 221 + Alpelisib = compound: CC1=CN2C(=O)C=C(N=C2C(=C1)C(C)NC3=CC=CC=C3)N4CCOCC4 [TGX 221] + Cc1nc(NC(=O)N2CCC[C@H]2C(N)=O)sc1-c1ccnc(C(C)(C)C(F)(F)F)c1 [Alpelisib] (partner 2 µM)
In short: (§1)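 Nuclei were stained with Hoechst during a one-step fixation (final 0.05% Triton X-100, 1% formaldehyde, 1 ug/ml Hoechst) carried out 5 days after dosing, then counted on 4× images. The cells, lung cancer lines in 1536-well plates, had been dosed by pin tool the day after seeding with one drug alone or a fixed anchor-drug dose plus five library-drug doses (not always all listed) in √10 steps. Relative viability is the nuclei count in treated wells divided by that in vehicle wells, and each value is the median of duplicate plates.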

TGX 221 + Navitoclax = compound: CC1=CN2C(=O)C=C(N=C2C(=C1)C(C)NC3=CC=CC=C3)N4CCOCC4 [TGX 221] + CC1(C)CCC(c2ccc(Cl)cc2)=C(CN2CCN(c3ccc(C(=O)NS(=O)(=O)c4ccc(N[C@H](CCN5CCOCC5)CSc5ccccc5)c(S(=O)(=O)C(F)(F)F)c4)cc3)CC2)C1 [Navitoclax] (partner 0.5 µM)
In short: as §1

TGX 221 + Foretinib = compound: CC1=CN2C(=O)C=C(N=C2C(=C1)C(C)NC3=CC=CC=C3)N4CCOCC4 [TGX 221] + COc1cc2c(Oc3ccc(NC(=O)C4(C(=O)Nc5ccc(F)cc5)CC4)cc3F)ccnc2cc1OCCCN1CCOCC1 [Foretinib] (partner 0.25 µM)
In short: as §1

[1] = compound: O=C(CCCCCCNC(=O)c1cnc(N(c2ccccc2)c2ccccc2)nc1)NO [Ricolinostat] + CC(=O)Nc1cccc(-n2c(=O)n(C3CC3)c(=O)c3c(Nc4ccc(I)cc4F)n(C)c(=O)c(C)c32)c1 [Trametinib] (partner 0.02 µM)
In short: as §1

Cell Line	relative viability (TGX 221 + Alpelisib; first compound 0.08 µM)	relative viability (TGX 221 + Alpelisib; first compound 0.253 µM)	relative viability (TGX 221 + Alpelisib; first compound 0.8 µM)	relative viability (TGX 221 + Alpelisib; first compound 2.53 µM)	relative viability (TGX 221 + Alpelisib; first compound 8 µM)	relative viability (TGX 221 + Navitoclax; first compound 0.08 µM)	relative viability (TGX 221 + Navitoclax; first compound 0.253 µM)	relative viability (TGX 221 + Navitoclax; first compound 0.8 µM)	relative viability (TGX 221 + Navitoclax; first compound 2.53 µM)	relative viability (TGX 221 + Navitoclax; first compound 8 µM)	relative viability (TGX 221 + Foretinib; first compound 0.08 µM)	relative viability (TGX 221 + Foretinib; first compound 0.253 µM)	relative viability (TGX 221 + Foretinib; first compound 0.8 µM)	relative viability (TGX 221 + Foretinib; first compound 2.53 µM)	relative viability (TGX 221 + Foretinib; first compound 8 µM)	relative viability ([1]; first compound 0.08 µM)	relative viability ([1]; first compound 0.253 µM)	relative viability ([1]; first compound 0.8 µM)	relative viability ([1]; first compound 2.53 µM)
NCI-H2009	1.16	1.07	1.1	0.907	0.733	1.13	1.16	1.17	1.02	0.927	1.12	1.14	1.25	1.14	0.789	0.158	0.262	0.294	0.353
NCI-H23	0.66	0.572	0.471	0.606	0.574	0.753	0.763	0.832	0.608	0.713	0.84	0.861	1.03	0.87	0.65	0.445	0.414	0.428	0.406
NCI-H1734	0.619	0.509	0.562	0.448	0.448	0.809	0.747	0.784	0.698	0.765	0.781	0.81	0.799	0.732	0.764	0.582	0.629	0.682	0.785
NCI-H2170	0.754	0.704	0.747	0.7	0.682	0.572	0.64	0.594	0.541	0.51	0.995	1.1	0.991	0.945	0.978	0.921	0.879	0.985	0.973
HCC-366	0.307	0.234	0.245	0.0984	0.127	1.03	0.927	0.916	1.07	0.914	0.844	0.892	0.96	0.902	0.813	0.372	0.32	0.314	0.342
HARA	0.778	0.659	0.803	0.574	0.584	1.18	1.13	1.03	1.13	1.11	0.703	0.71	0.904	0.849	0.667	0.704	0.804	0.529	0.644
NCI-H2087	0.978	1.13	1.13	1.12	1.31	0.989	0.898	1.06	0.945	0.952	1.01	1.01	1.09	1.04	1.1	0.211	0.188	0.173	0.233
NCI-H1666	0.855	0.742	0.735	0.645	0.654	0.935	0.759	0.749	0.844	0.927	1.06	0.902	0.951	0.963	0.922	0.872	0.869	0.84	0.879
HOP-62	0.899	0.958	0.827	1.13	1.11	1.04	1.06	1.09	1.12	1.06	1.09	1.1	1.05	1.15	1.08	0.335	0.391	0.384	0.432
BEN	0.982	0.942	0.899	0.899	0.88	0.0671	0.0617	0.0682	0.0659	0.0557	0.667	0.58	0.748	0.624	0.606	0.816	0.905	0.828	0.796
UMC-11	0.955	0.961	0.966	1.03	1.06	0.352	0.304	0.337	0.283	0.259	0.934	0.932	1	1.06	1.03	0.644	0.684	0.623	0.265
NCI-H1755	0.876	0.706	0.651	0.49	0.437	0.948	0.949	0.891	0.606	0.444	0.926	0.884	0.82	0.763	0.781	0.694	0.678	0.814	0.779
SK-LU-1	0.948	0.788	0.903	0.9	0.731	0.392	0.84	0.726	0.786	0.772	0.808	0.703	0.768	0.63	0.657	0.476	0.52	0.475	0.396
NCI-H1793	0.611	0.503	0.482	0.446	0.406	0.405	0.328	0.286	0.283	0.176	0.708	0.462	0.51	0.452	0.411	0.327	0.389	0.435	0.444
NCI-H647	0.867	0.862	0.65	0.624	0.459	1.08	0.781	0.943	0.88	0.622	1.05	1.04	1.21	0.762	0.931	0.372	0.464	0.51	0.564
NCI-H1975	0.585	0.454	0.465	0.446	0.362	1.03	1.13	0.989	0.903	0.805	0.862	0.899	0.965	0.841	0.797	0.374	0.368	0.33	0.326
